We go through 20 compounds from ChEMBL document CHEMBL1134665, “Synthesis and antitumor activity of ester-modified analogues of bengamide B” (J Med Chem, 2001).

The test system of assay [1] is MDA-MB-435. In words: (§1) Antiproliferative activity against MDA-MB-435 human breast carcinoma cells in vitro using MDA-MB-435 monolayer growth assay. Type of assay: functional, cell-based.
Assay [2] relates to MDA-MB-435. In words: In vivo for percent body weight against MDA-MB-435 human breast carcinoma cells implanted sc in mice at a dose 26 umol/kg. Type of assay: functional.
Assay [3] deals with MDA-MB-435. Nature of the assay: In vivo percent T/C against MDA-MB-435 human breast carcinoma cells implanted sc in mice at a dose 26 umol/kg. In kind it is functional.
The test system of assay [4] is MDA-MB-435. Nature of the assay: In vivo for percent body weight against MDA-MB-435 human breast carcinoma cells implanted sc in mice at a dose 52 umol/Kg. In kind it is functional.
Assay [5] concerns MDA-MB-435. In words: In vivo percent T/C against MDA-MB-435 human breast carcinoma cells implanted sc in mice at a dose 52 umol/Kg. Type of assay: functional.
Assay [6] deals with MDA-MB-435. In words: In vivo percent T/C against MDA-MB-435 human breast carcinoma cells implanted sc in mice at a dose 10 umol/kg. In kind it is functional.
Assay [7] relates to MDA-MB-435. Described as §1. In kind it is functional.
The subject of assay [8] is MDA-MB-435. In words: In vivo percent T/C against MDA-MB-435 human breast carcinoma cells implanted sc in mice at a dose 33 umol/Kg. Type of assay: functional.
For assay [9], the system named is MDA-MB-435. In words: In vivo percent body weight versus MDA-MB-435 human breast carcinoma cells implanted sc in mice at a dose 33 umol/Kg. In kind it is functional.
Assay [10] concerns MDA-MB-435. In words: In vivo percent body weight versus MDA-MB-435 human breast carcinoma cells implanted sc in mice at a dose 10 umol/kg. Type of assay: functional.
Assay [11] has as its system MDA-MB-435. Nature of the assay: In vivo for percent body weight against MDA-MB-435 human breast carcinoma cells implanted sc in mice at a dose 100 umol/Kg. Type of assay: functional.
Assay [12] has as its system MDA-MB-435. In words: In vivo percent T/C against MDA-MB-435 human breast carcinoma cells implanted sc in mice at a dose 100 umol/kg. In kind it is functional.
Assay [13] has as its system MDA-MB-435. Nature of the assay: In vivo for percent body weight against MDA-MB-435 human breast carcinoma cells implanted sc in mice at a dose m100 umol/Kg. In kind it is functional.
Assay [14] has as its system MDA-MB-435. In words: In vivo percent T/C against MDA-MB-435 human breast carcinoma cells implanted sc in mice at a dose 100 umol/Kg. Type of assay: functional.
Assay [15] relates to MDA-MB-435. Nature of the assay: In vivo percent T/C against MDA-MB-435 human breast carcinoma cells implanted sc in mice at a dose 28 umol/kg. Type of assay: functional.
The subject of assay [16] is MDA-MB-435. In words: In vivo percent T/C against MDA-MB-435 human breast carcinoma cells implanted sc in mice at a dose 84 umol/Kg. In kind it is functional.
Assay [17] relates to MDA-MB-435. Nature of the assay: In vivo for percent body weight against MDA-MB-435 human breast carcinoma cells implanted sc in mice at a dose 28 umol/kg. Type of assay: functional.
The subject of assay [18] is MDA-MB-435. Nature of the assay: In vivo for percent body weight against MDA-MB-435 human breast carcinoma cells implanted sc in mice at a dose 84 umol/kg. Type of assay: functional.
For assay [19], the system named is MDA-MB-435. Nature of the assay: In vivo percent T/C against MDA-MB-435 human breast carcinoma cells implanted sc in mice at a dose 279 umol/Kg. Type of assay: functional.
Assay [20] deals with MDA-MB-435. Nature of the assay: In vivo for percent body weight against MDA-MB-435 human breast carcinoma cells implanted sc in mice at a dose 279 umol/Kg. In kind it is functional.
Assay [21] concerns MDA-MB-435. Nature of the assay: In vivo percent T/C against MDA-MB-435 human breast carcinoma cells implanted sc in mice at a dose 2 umol/kg. In kind it is functional.
Assay [22] relates to MDA-MB-435. In words: In vivo for percent body weight against MDA-MB-435 human breast carcinoma cells implanted sc in mice at a dose 2 umol/kg. In kind it is functional.

The term IC50 denotes the concentration that gives 50% inhibition. As usually defined, the T/C is the ratio of treated to control. `CO[C@@H](C(=O)NC1CC[C@H](O)CN(C)C1=O)[C@H](O)[C@@H](O)[C@H](O)/C=C/C(C)C` (stereo partly specified) came in with an IC50 in the assay on MDA-MB-435 [1] of 2900 nM. The Body weight is 9.5% with MDA-MB-435 [2] and 0.8% in the assay with MDA-MB-435 [4]. Also, the T/C in the assay on MDA-MB-435 [3] was 42%; in the assay on MDA-MB-435 [5], 41%.
For the compound `CO[C@@H](C(=O)NC1CC[C@@H](OC(=O)C2CCCCCC2)CNC1=O)[C@H](O)[C@@H](O)[C@H](O)/C=C/C(C)(C)C` (stereo partly specified), the T/C in the assay with MDA-MB-435 [6] is given as under 39%; in the assay on MDA-MB-435 [8], under 28%. The same compound yielded an IC50 in the assay with MDA-MB-435 [7] of 20 nM. Moreover, the values for the Body weight in the assay on MDA-MB-435 [9] and in the assay on MDA-MB-435 [10] were 8.4% and 10.1%, respectively.
Regarding `CO[C@@H](C(=O)NC1CC[C@@H](OC(=O)C2CCCCC2)CNC1=O)[C@H](O)[C@@H](O)[C@H](O)/C=C/C(C)(C)C` (stereo partly specified), the T/C in the assay with MDA-MB-435 [6] is listed as under 58%; with MDA-MB-435 [8], under 7%; in the assay on MDA-MB-435 [12], under 29%. Besides, the 50% inhibitory concentration (IC50) in the assay with MDA-MB-435 [7] turned out to be 4 nM. The Body weight with MDA-MB-435 [11] was -2.6%; in the assay on MDA-MB-435 [9], 3.5%; with MDA-MB-435 [10], 10.5%.
Regarding `CO[C@@H](C(=O)NC1CC[C@@H](OC(=O)CCc2ccccc2)CNC1=O)[C@H](O)[C@@H](O)[C@H](O)/C=C/C(C)(C)C` (stereo partly specified), the T/C with MDA-MB-435 [6] is under 53%; in the assay on MDA-MB-435 [8], under 12%; with MDA-MB-435 [14], under 58%. For the same compound, in the assay with MDA-MB-435 [7], the IC50 turned out to be 10 nM. Moreover, the Body weight was -3.1% in the assay with MDA-MB-435 [13], 5.3% in the assay on MDA-MB-435 [9] and 6% in the assay on MDA-MB-435 [10].
Take `CO[C@@H](C(=O)NC1CCCCN(C)C1=O)[C@H](O)[C@@H](O)[C@H](O)/C=C/C(C)C` (stereo partly specified): the IC50 in the assay on MDA-MB-435 [1] is 2900 nM.
The same measure, in the same setting: under `CCCCCCCCCCCCCOC(=O)[C@H]1CCC(NC(=O)[C@H](OC)[C@H](O)[C@@H](O)[C@H](O)/C=C/C(C)C)C(=O)NC1` (stereo partly specified) stands 1 nM.
As to `CO[C@@H](C(=O)NC1CC[C@@H](OC(=O)Cc2cccnc2)CNC1=O)[C@H](O)[C@@H](O)[C@H](O)/C=C/C(C)(C)C` (stereo partly specified), the T/C turned out to be 69% with MDA-MB-435 [6] and 82% with MDA-MB-435 [8]. Besides, the IC50 in the assay on MDA-MB-435 [7] came out at 5850 nM. Besides, the Body weight with MDA-MB-435 [9] came out at 6.8%; with MDA-MB-435 [10], 6.4%.
The like results for `CO[C@@H](C(=O)NC1CC[C@@H](OC(=O)CCc2cccnc2)CNC1=O)[C@H](O)[C@@H](O)[C@H](O)/C=C/C(C)(C)C` (stereo partly specified) were, in that order, 92%, under 44%, 460 nM, 3% and 10.1%.
The like results for `CCCCCCCCCCc1ccc(C(=O)O[C@@H]2CCC(NC(=O)[C@H](OC)[C@H](O)[C@@H](O)[C@H](O)/C=C/C(C)(C)C)C(=O)NC2)cc1` (stereo partly specified) were, in that order, 76%, under 6%, 30 nM, 2.6% and 6%.
As for `CO[C@@H](C(=O)NC1CC[C@@H](OC(=O)c2ccccc2)CNC1=O)[C@H](O)[C@@H](O)[C@H](O)/C=C/C(C)(C)C` (stereo partly specified), the T/C worked out at 93% in the assay on MDA-MB-435 [6] and 80% with MDA-MB-435 [8]. For the same compound, the IC50 in the assay on MDA-MB-435 [7] was determined as 370 nM. The Body weight with MDA-MB-435 [9] is reported as 5.6%; in the assay with MDA-MB-435 [10], 5.5%.
For the compound `CCCCCc1ccc(C(=O)O[C@@H]2CCC(NC(=O)[C@H](OC)[C@H](O)[C@@H](O)[C@H](O)/C=C/C(C)(C)C)C(=O)NC2)cc1` (stereo partly specified), the results for the T/C in the assay with MDA-MB-435 [6] and in the assay with MDA-MB-435 [8] were 111% and 91%, respectively. Moreover, the half-inhibitory concentration (IC50) in the assay with MDA-MB-435 [7] worked out at 20 nM. In addition, the Body weight was determined as 2.6% with MDA-MB-435 [9] and 6% in the assay on MDA-MB-435 [10].
The like results for `CO[C@@H](C(=O)NC1CC[C@@H](OC(=O)C2CCCC2)CNC1=O)[C@H](O)[C@@H](O)[C@H](O)/C=C/C(C)(C)C` (stereo partly specified) were, in that order, 67%, under 13%, 130 nM, 3% and 7.6%.
The like results for `CO[C@@H](C(=O)NC1CC[C@@H](OC(=O)/C=C/c2ccccc2)CNC1=O)[C@H](O)[C@@H](O)[C@H](O)/C=C/C(C)(C)C` (stereo partly specified) were, in that order, under 64%, under 63%, 20 nM, 7.5% and 7.4%.
The like results for `CCCCCCCCCCCCCC(=O)O[C@H]1CCC(NC(=O)[C@H](OC)[C@H](O)[C@@H](O)[C@H](O)/C=C/C(C)(C)C)C(=O)N(C)C1` (stereo partly specified) were, in that order, under 58%, under 46%, 10 nM, 6.4% and 6.1%.
Take `CCCCCCCCCCOc1ccc(C(=O)O[C@@H]2CCC(NC(=O)[C@H](OC)[C@H](O)[C@@H](O)[C@H](O)/C=C/C(C)(C)C)C(=O)NC2)cc1` (stereo partly specified): the T/C with MDA-MB-435 [6] is under 64%; with MDA-MB-435 [8], 2%. Moreover, in the assay on MDA-MB-435 [7], the IC50 amounted to 10 nM. Besides, the Body weight in the assay on MDA-MB-435 [9] is recorded as -0.9%; in the assay on MDA-MB-435 [10] it was 8.8%.
The like results for `CO[C@@H](C(=O)NC1CC[C@@H](OC(=O)CC2CCCCC2)CNC1=O)[C@H](O)[C@@H](O)[C@H](O)/C=C/C(C)(C)C` (stereo partly specified) were, in that order, under 47%, under 34%, 60 nM, 3.5% and 4.6%.
As for `CO[C@@H](C(=O)NC1CC[C@@H](OC(=O)Cc2ccccc2)CNC1=O)[C@H](O)[C@@H](O)[C@H](O)/C=C/C(C)(C)C` (stereo partly specified), the T/C in the assay on MDA-MB-435 [6] is 72%; with MDA-MB-435 [8] it was under 43%. In addition, half-maximal inhibition in the assay on MDA-MB-435 [7] (IC50) required 260 nM. Further, the Body weight with MDA-MB-435 [9] is recorded as 3.9%; in the assay on MDA-MB-435 [10], 10.6%.
The like results for `CCCCCCCCCCCCCC(=O)O[C@@H]1CCC(NC(=O)[C@H](OC)[C@H](O)[C@@H](O)[C@H](O)/C=C/C(C)(C)C)C(=O)NC1` (stereo partly specified) were, in that order, under 41%, under 4%, under 10 nM, 5.7% and 7.4%.
As to `CO[C@@H](C(=O)NC1CCCCNC1=O)[C@H](O)[C@@H](O)[C@H](O)/C=C/C(C)C` (stereo partly specified), the T/C was 62% with MDA-MB-435 [15], 62% with MDA-MB-435 [16] and under 19% in the assay with MDA-MB-435 [19]. The compound also returned an IC50 in the assay on MDA-MB-435 [1] of 3300 nM. Moreover, the Body weight in the assay on MDA-MB-435 [17] was determined as 8.4%; in the assay on MDA-MB-435 [18], 7.1%; in the assay with MDA-MB-435 [20] it was 6.7%.
The compound `COc1cccc2c1C(=O)c1c(O)c3c(c(O)c1C2=O)C[C@@](O)(C(=O)CO)C[C@@H]3O[C@H]1C[C@H](N)[C@H](O)[C@H](C)O1` [DOXORUBICIN] yielded an IC50 in the assay on MDA-MB-435 [7] of 400 nM. In addition, the T/C in the assay with MDA-MB-435 [21] is recorded as under 44%. Moreover, the Body weight in the assay with MDA-MB-435 [22] is on record as 3.9%.
